*1 amine or outer side, *2 acyl side, *3 side chain or, on linkers, in order; H or OH if unused. Where a SMILES comes first, the peptide text is derived from it. Side-chain parts run from the residue outwards. [ ]: non-standard residue; d: D form. The star is where a group is joined. C20 diacid = O=C(O)CCCCCCCCCCCCCCCCCCC(=O)*; C18 diacid = O=C(O)CCCCCCCCCCCCCCCCC(=O)*; C16 diacid = O=C(O)CCCCCCCCCCCCCCC(=O)*; γGlu = O=C(O)[C@H](CCC(=O)[*:2])N[*:1]; NMeI = CC[C@H](C)[C@H](NC)C(=O)O; Pentanoyl = CCCCC(=O)*; AEEA = NCCOCCOCC(=O)O; Aib = CC(C)(N)C(=O)O
Key:
human CRF2a receptor = target: T1, human CRF2a receptor (Homo sapiens, UniProt Q13324); assay: Activity at human CRF2a receptor, cAMP functional assay in TeloHEAC cells; type: cell-based; conditions: TeloHEAC cells stably expressing human CRF2a receptor, relative to urocortin 2 (100 nM = 100%)
T1 construct: expressed in transfected cells; host or cells: TeloHEAC cells
T1 sequence (Q13324 1-411): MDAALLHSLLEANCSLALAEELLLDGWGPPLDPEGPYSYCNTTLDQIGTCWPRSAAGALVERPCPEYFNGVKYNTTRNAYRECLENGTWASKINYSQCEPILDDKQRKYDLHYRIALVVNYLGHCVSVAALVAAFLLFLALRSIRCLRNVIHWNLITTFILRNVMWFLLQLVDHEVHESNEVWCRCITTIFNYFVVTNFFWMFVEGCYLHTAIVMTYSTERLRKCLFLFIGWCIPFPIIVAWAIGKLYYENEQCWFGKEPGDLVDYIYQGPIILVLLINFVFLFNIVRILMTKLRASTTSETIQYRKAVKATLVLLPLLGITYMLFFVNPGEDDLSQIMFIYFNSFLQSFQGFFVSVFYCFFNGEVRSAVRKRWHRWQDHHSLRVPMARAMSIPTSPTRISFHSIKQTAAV
How it was run: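 cAMP accumulation was measured by HTRF 665/620 nm ratio after 30 min at 37° C compound exposure (16 twofold dilutions) of CRF2a-expressing TeloHEAC cells, 10000/well, in HEPES-buffered HBSS plus IBMX. Activity was normalised to urocortin 2 at 100 nM (100%), and EC50 was the concentration giving half-maximal activation.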

CFR1R receptor = target: T2, CFR1R receptor (Homo sapiens, UniProt P34998); assay: Activity at anti-target CFR1R receptor, cAMP assay in CRF1R-overexpression CHO-K1 cells; type: cell-based; conditions: 100% = Sauvagine at 100 nM; for EC50: cAMP
T2 construct: host or cells: CHO-K1 (clone 2)
T2 sequence (P34998 24-415): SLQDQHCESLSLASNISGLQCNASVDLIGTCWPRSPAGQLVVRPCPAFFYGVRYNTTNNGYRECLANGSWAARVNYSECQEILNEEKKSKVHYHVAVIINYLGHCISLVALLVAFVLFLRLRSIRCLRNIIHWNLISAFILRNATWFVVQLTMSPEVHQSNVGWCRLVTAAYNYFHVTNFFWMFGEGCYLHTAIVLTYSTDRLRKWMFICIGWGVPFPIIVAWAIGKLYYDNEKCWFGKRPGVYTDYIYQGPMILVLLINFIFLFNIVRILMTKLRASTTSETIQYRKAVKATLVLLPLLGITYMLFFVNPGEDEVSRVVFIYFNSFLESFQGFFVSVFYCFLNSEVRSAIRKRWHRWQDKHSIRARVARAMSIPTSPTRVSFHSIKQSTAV
How it was run: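 Clone 2; cryopreserved stocks (10% DMSO); 4000 cells/well final; 100% activation = Sauvagine 100 nM; otherwise as TeloHAEC protocol.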

[1] = Chemical stability in buffer (pH 7.4 / pH 4.5), % purity loss; type: physicochemical; conditions: 40° C. vs 5° C., 14 or 28 days; for Buffer stability pH 4.5 % purity loss: 100 mM acetate buffer pH 4.5; for Buffer stability pH 7.4 % purity loss: 100 mM phosphate buffer pH 7.4
Experimental: Solubility and chemical stability were studied in 100 mM phosphate buffer (pH 7.4) and 100 mM acetate buffer (pH 4.5). Test compound powders were dissolved in both buffers at a target concentration of 10 mg/mL and incubated for 1 hour at room temperature. After centrifugation at 2500 rcf for 15 minutes, 10 μL of supernatant was diluted with 190 μL of the incubation buffer and analyzed by LC-UV (Acquity UPLC-DAD, Waters). Solubility was calculated by comparing the peak area of the test compound in the buffer sample with the peak area of the same compound dissolved at 0.5 mg/mL in water:acetonitrile 1:1, 0.1% formic acid.
From the centrifuged supernatant, two additional 80 μL aliquots were collected and diluted with 160 μL of incubation buffer. One aliquot was stored at 5° C., while the other was stored at 40° C. After 14 or 28 days, the samples were analyzed by LC-UV. Chemical stability was calculated as % loss using the following equations: […]

| SMILES | EC50 (human CRF2a receptor) | Emax (% I) (CFR1R receptor) | EC50 (CFR1R receptor) | Buffer stability pH 4.5 % purity loss [1] | Buffer stability pH 7.4 % purity loss [1] |
| --- | --- | --- | --- | --- | --- |
| CC[C@H](C)[C@H](NC(=O)[C@H](CCC(N)=O)NC(=O)[C@H](CCCCN)NC(=O)[C@H](CC(N)=O)NC(=O)[C@@H](NC(=O)[C@H](CCC(=O)O)NC(=O)[C@H](C)NC(=O)[C@H](CCC(N)=O)NC(=O)[C@H](CCC(=O)O)NC(=O)[C@H](CCCNC(=N)N)NC(=O)[C@H](CCC(N)=O)NC(=O)[C@H](CCCCN)NC(=O)[C@H](CCCCN)NC(=O)[C@H](CCC(N)=O)NC(=O)[C@H](CCCCN)NC(=O)[C@H](CCC(=O)O)NC(=O)[C@H](CCC(N)=O)NC(=O)[C@H](CCC(=O)O)NC(=O)[C@H](CC(C)C)NC(=O)[C@H](CC(C)C)NC(=O)[C@@H](NC(=O)[C@H](CCCCN)NC(=O)[C@H](CCCCNC(=O)COCCOCCNC(=O)COCCOCCNC(=O)CC[C@H](NC(=O)CCCCCCCCCCCCCCCCC(=O)O)C(=O)O)NC(=O)[C@H](CC(C)C)NC(=O)[C@H](CCCCN)NC(=O)[C@@H](NC(=O)[C@@H]1CCCN1C(=O)[C@H](NC(=O)[C@H](CC(=O)O)NC(=O)[C@H](CC(C)C)NC(=O)[C@H](CO)NC(=O)[C@H](CC(C)C)NC(=O)[C@@H](NC(C)=O)C(C)C)C(C)C)[C@@H](C)CC)[C@@H](C)CC)[C@@H](C)O)C(=O)N[C@@H](CC(C)C)C(=O)N[C@@H](C)C(=O)N[C@@H](CCC(N)=O)C(=O)N[C@H](C(N)=O)C(C)C [compound 92] (Ac-VLSLD[dV]PIKLK([AEEA-AEEA-γGlu-C18 diacid])KILLEQEKQKKQREQAETNKQILAQV-NH2) | 2.3 nM | 5 % I | > 250 nM | 0% | 16.8% |
| CCCCC(=O)N[C@H](C(=O)N[C@@H](CC(C)C)C(=O)N[C@@H](CO)C(=O)N[C@@H](CC(C)C)C(=O)N[C@@H](CC(=O)O)C(=O)N[C@H](C(=O)N1CCC[C@H]1C(=O)N[C@H](C(=O)N[C@@H](CCCCN)C(=O)N[C@@H](CC(C)C)C(=O)N[C@@H](CCCCNC(=O)COCCOCCNC(=O)COCCOCCNC(=O)CC[C@H](NC(=O)CCCCCCCCCCCCCCCCC(=O)O)C(=O)O)C(=O)N[C@@H](CCCCN)C(=O)N[C@H](C(=O)N[C@@H](CC(C)C)C(=O)N[C@@H](CC(C)C)C(=O)N[C@@H](CCC(=O)O)C(=O)N[C@@H](CCC(N)=O)C(=O)N[C@@H](CCC(=O)O)C(=O)N[C@@H](CCCCN)C(=O)N[C@@H](CCC(N)=O)C(=O)N[C@@H](CCCCN)C(=O)N[C@@H](CCCCN)C(=O)N[C@@H](CCC(N)=O)C(=O)N[C@@H](CCCNC(=N)N)C(=O)N[C@@H](CCC(=O)O)C(=O)N[C@@H](CCC(N)=O)C(=O)N[C@@H](C)C(=O)N[C@@H](CCC(=O)O)C(=O)N[C@H](C(=O)N[C@@H](CC(N)=O)C(=O)N[C@@H](CCCCN)C(=O)N[C@@H](CCC(N)=O)C(=O)N[C@H](C(=O)N[C@@H](CC(C)C)C(=O)N[C@@H](C)C(=O)N[C@@H](CCC(N)=O)C(=O)N[C@H](C(N)=O)C(C)C)[C@@H](C)CC)[C@@H](C)O)[C@@H](C)CC)[C@@H](C)CC)C(C)C)C(C)C [compound 96] (Pentanoyl-VLSLDVPIKLK([AEEA-AEEA-γGlu-C18 diacid])KILLEQEKQKKQREQAETNKQILAQV-NH2) | 0.49 nM | 4 % I | > 250 nM | nd/0 ^ % | – |
| CC[C@H](C)[C@H](NC(=O)[C@H](CCC(N)=O)NC(=O)[C@H](CCCCN)NC(=O)[C@H](CC(N)=O)NC(=O)[C@@H](NC(=O)[C@H](CCC(=O)O)NC(=O)[C@H](C)NC(=O)[C@H](CCC(N)=O)NC(=O)[C@H](CCC(=O)O)NC(=O)[C@H](CCCNC(=N)N)NC(=O)[C@H](CCC(N)=O)NC(=O)[C@H](CCCCN)NC(=O)[C@H](CCCCN)NC(=O)[C@H](CCC(N)=O)NC(=O)[C@H](CCCCN)NC(=O)[C@H](CCC(=O)O)NC(=O)[C@H](CCC(N)=O)NC(=O)[C@H](CCC(=O)O)NC(=O)[C@H](CC(C)C)NC(=O)[C@H](CC(C)C)NC(=O)[C@@H](NC(=O)[C@H](CCCCN)NC(=O)[C@H](CCCCNC(=O)CC[C@H](NC(=O)CCCCCCCCCCCCCCC(=O)O)C(=O)O)NC(=O)[C@H](CC(C)C)NC(=O)[C@H](CCCCN)NC(=O)[C@@H](NC(=O)[C@@H]1CCCN1C(=O)[C@H](NC(=O)[C@H](CC(=O)O)NC(=O)[C@H](CC(C)C)NC(=O)[C@H](CO)NC(=O)[C@H](CC(C)C)NC(=O)[C@@H](N)C(C)C)C(C)C)[C@@H](C)CC)[C@@H](C)CC)[C@@H](C)O)C(=O)N[C@@H](CC(C)C)C(=O)N[C@@H](C)C(=O)N[C@@H](CCC(N)=O)C(=O)N[C@H](C(N)=O)C(C)C [compound 34] (H-VLSLD[dV]PIKLK([γGlu-C16 diacid])KILLEQEKQKKQREQAETNKQILAQV-NH2) | 1.61 nM | 0 % I | > 250 nM | 0% | 4.5% |
| CC[C@H](C)[C@H](NC)C(=O)N[C@H](C(=O)N[C@@H](CC(C)C)C(=O)N[C@@H](CO)C(=O)N[C@@H](CC(C)C)C(=O)N[C@@H](CC(=O)O)C(=O)N[C@@H](C(=O)N1CCC[C@H]1C(=O)N[C@H](C(=O)N[C@@H](CCCCN)C(=O)N[C@@H](CC(C)C)C(=O)N[C@@H](CCCCNC(=O)COCCOCCNC(=O)COCCOCCNC(=O)CC[C@H](NC(=O)CCCCCCCCCCCCCCCCCCC(=O)O)C(=O)O)C(=O)N[C@@H](CCCCN)C(=O)N[C@H](C(=O)N[C@@H](CC(C)C)C(=O)N[C@@H](CC(C)C)C(=O)N[C@@H](CCC(=O)O)C(=O)N[C@@H](CCC(N)=O)C(=O)N[C@@H](CCC(=O)O)C(=O)N[C@@H](CCCCN)C(=O)N[C@@H](CCC(N)=O)C(=O)N[C@@H](CCCCN)C(=O)NC(C)(C)C(=O)N[C@@H](CCC(N)=O)C(=O)N[C@@H](CCCNC(=N)N)C(=O)N[C@@H](CCC(=O)O)C(=O)N[C@@H](CCC(N)=O)C(=O)N[C@@H](C)C(=O)N[C@@H](CCC(=O)O)C(=O)N[C@H](C(=O)N[C@@H](CC(N)=O)C(=O)NC(C)(C)C(=O)N[C@@H](CCC(N)=O)C(=O)N[C@H](C(=O)N[C@@H](CC(C)C)C(=O)N[C@@H](C)C(=O)N[C@@H](CCC(N)=O)C(=O)N[C@H](C(N)=O)C(C)C)[C@@H](C)CC)[C@@H](C)O)[C@@H](C)CC)[C@@H](C)CC)C(C)C)C(C)C [compound 239] (H-[NMeI]VLSLD[dV]PIKLK([AEEA-AEEA-γGlu-C20 diacid])KILLEQEKQK[Aib]QREQAETN[Aib]QILAQV-NH2) | 0.11 nM | 0 % I | > 250 nM | 2.6% | 0.0% |

Source: patent publication US20260001928A1 (CORTERIA PHARMACEUTICALS, priority 2022, published 2026)
